Values quoted from earlier work, collected in patent US20150148304A1, “Novel Peptides and Analogs for Use in the Treatment of Macrophage Activation Syndrome” (Soligenix, Inc., priority 2013, published 2015).

How the values were obtained:
TLR9 = target: T1, TLR9 (Homo sapiens, UniProt Q9NR96); settings: average; US 2011/0136845 Trawick et al.; cited from earlier work
T1 sequence (Q9NR96 26-1032): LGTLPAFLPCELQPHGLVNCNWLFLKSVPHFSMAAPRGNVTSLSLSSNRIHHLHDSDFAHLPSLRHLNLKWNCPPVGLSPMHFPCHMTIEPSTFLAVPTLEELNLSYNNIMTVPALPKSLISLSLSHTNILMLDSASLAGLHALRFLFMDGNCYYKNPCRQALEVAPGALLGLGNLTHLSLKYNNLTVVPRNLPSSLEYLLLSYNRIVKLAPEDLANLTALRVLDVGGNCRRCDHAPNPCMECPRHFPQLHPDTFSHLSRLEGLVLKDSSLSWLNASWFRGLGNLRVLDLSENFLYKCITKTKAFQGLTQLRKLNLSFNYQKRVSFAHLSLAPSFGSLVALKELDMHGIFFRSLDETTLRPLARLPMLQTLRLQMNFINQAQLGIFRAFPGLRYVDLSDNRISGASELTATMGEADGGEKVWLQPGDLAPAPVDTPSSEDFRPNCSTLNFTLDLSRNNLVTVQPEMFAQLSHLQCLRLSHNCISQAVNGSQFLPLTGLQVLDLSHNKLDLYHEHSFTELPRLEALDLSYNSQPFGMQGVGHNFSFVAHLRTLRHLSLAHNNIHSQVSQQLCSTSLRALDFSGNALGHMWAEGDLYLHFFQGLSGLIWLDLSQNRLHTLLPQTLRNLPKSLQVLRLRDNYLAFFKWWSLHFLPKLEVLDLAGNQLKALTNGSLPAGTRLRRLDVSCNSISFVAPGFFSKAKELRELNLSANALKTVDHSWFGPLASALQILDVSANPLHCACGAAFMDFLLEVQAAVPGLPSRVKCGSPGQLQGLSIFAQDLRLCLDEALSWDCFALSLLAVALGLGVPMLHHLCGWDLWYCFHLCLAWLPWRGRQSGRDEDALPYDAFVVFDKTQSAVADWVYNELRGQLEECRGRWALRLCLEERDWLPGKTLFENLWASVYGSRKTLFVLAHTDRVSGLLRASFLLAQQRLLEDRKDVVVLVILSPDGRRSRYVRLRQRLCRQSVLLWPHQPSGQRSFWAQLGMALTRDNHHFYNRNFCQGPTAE

[1] = cited from earlier work
[2] = system: macrophage activation syndrome; settings: Ravelli et al. 2001, cited from earlier work

O=C1CC[C@]2(O)[C@@H]3Cc4ccc(O)c5c4[C@]2(CCN3CC2CC2)[C@@H]1O5 [(+)-Naltrexone]
inhibition of TLR9 (TLR9): 51%

O=C1CC[C@@]2(O)[C@H]3Cc4ccc(O)c5c4[C@@]2(CCN3CC2CC2)[C@H]1O5 [Naltrexone]
time of peak plasma levels after dosing ([1]; oral administration): one
urinary excretion of unchanged Naltrexone ([1]; share of the elimination pathway): less than 2%

cyclosporin A [CyA]
efficacy in severe or corticosteroid-resistant macrophage activation syndrome ([2]; patients, Mouy et al. 1996): effective
time to disappearance of fever and improvement of laboratory abnormalities ([2]; some patients): 12 to 24 h
